The supplement of paper PMC11061612

Columns and labels:
Assay in all cases: combination Emax (second highest fraction inhibited in the dose matrix, 72 h); higher = more inhibition; extreme values may be limits of the assay
[1] = tested on: MLMA (Other Blood Carcinomas)
In short: (§1)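 Bliss excess equals the observed combination effect minus the expected value EA + EB − EA·EB, where EA and EB are the effects of each agent alone. Combination Emax is the second-highest inhibition within the matrix. Inhibition was scaled from CellTiter-Glo 2.0 luminescence, with 0 set by vehicle wells and 1 by blank wells, after 72 hours of two-drug dosing of cells plated in 1536-well plates.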

[2] = tested on: OSC-20 (Oral Cavity Carcinoma)
In short: as §1

[3] = tested on: NUGC-3 (Gastric Carcinoma)
In short: as §1

[4] = tested on: HGC-27 (Gastric Carcinoma)
In short: as §1

[5] = tested on: NCI-H727 (Other Solid Carcinomas)
In short: as §1

[6] = tested on: EoL-1-cell (Acute Myeloid Leukemia)
In short: as §1

[7] = tested on: NCI-H358 (Lung Adenocarcinoma)
In short: as §1

NB69 (Neuroblastoma) = tested on: NB69 (Neuroblastoma)
In short: as §1

[8] = tested on: Caov-4 (Ovarian Carcinoma)
In short: as §1

[9] = tested on: LU-65 (Non-Small Cell Lung Carcinoma)
In short: as §1

PWR-1E (Non-Cancerous) = tested on: PWR-1E (Non-Cancerous)
In short: as §1

[10] = tested on: OE19 (Esophageal Adenocarcinoma)
In short: as §1

EW-24 (Ewing's Sarcoma) = tested on: EW-24 (Ewing's Sarcoma)
In short: as §1

[11] = tested on: SW13 (Other Solid Carcinomas)
In short: as §1

D-263MG (Glioblastoma) = tested on: D-263MG (Glioblastoma)
In short: as §1

[12] = tested on: Hs-766T (Pancreatic Carcinoma)
In short: as §1

[13] = tested on: HSC-4 (Oral Cavity Carcinoma)
In short: as §1

YH-13 (Glioblastoma) = tested on: YH-13 (Glioblastoma)
In short: as §1

[14] = tested on: MIA-PaCa-2 (Pancreatic Carcinoma)
In short: as §1

[15] = tested on: HOP-62 (Lung Adenocarcinoma)
In short: as §1

For `CC1(C)CCC(CN2CCN(c3ccc(C(=O)NS(=O)(=O)c4ccc(NCC5CCOCC5)c([N+](=O)[O-])c4)c(Oc4cnc5[nH]ccc5c4)c3)CC2)=C(c2ccc(Cl)cc2)C1` [Venetoclax] + CCN(CCO)CCCOc1ccc2c(Nc3cc(CC(=O)Nc4cccc(F)c4)[nH]n3)ncnc2c1 [AZD2811] (first compound max 1 µM, 7x7, partner max 1 µM), the “combination Emax” value [1] was 0.841, the “combination Emax” value [2] was 0.336 and the “combination Emax” value [3] was 0.298. The “combination Emax” value [4] was 0.809, the “combination Emax” value [5] was 0.317 and the “combination Emax” value [6] was 1. For the same compound, the “combination Emax” value [7] was 0.276, the “combination Emax” value (NB69 (Neuroblastoma)) was 0.777 and the “combination Emax” value [8] was 0.263. For the same compound, the “combination Emax” value [9] was 0.249, the “combination Emax” value (PWR-1E (Non-Cancerous)) was 0.455 and the “combination Emax” value [10] was 0.779. For the same compound, the “combination Emax” value (EW-24 (Ewing's Sarcoma)) was 0.457, the “combination Emax” value [11] was 0.402 and the “combination Emax” value (D-263MG (Glioblastoma)) was 0.323. The “combination Emax” value [12] was 0.291, the “combination Emax” value [13] was 0.203 and the “combination Emax” value (YH-13 (Glioblastoma)) was 0.576. The “combination Emax” value [14] was 0.37 and the “combination Emax” value [15] was 0.342.
With `Cc1c2c(nn1C)CSCc1cc(n(C)n1)CSc1cc(c3ccccc3c1)OCCCc1c(C(=O)O)n(C)c3c-2c(Cl)ccc13` [AZD5991] + CCN(CCO)CCCOc1ccc2c(Nc3cc(CC(=O)Nc4cccc(F)c4)[nH]n3)ncnc2c1 [AZD2811] (first compound max 1 µM, 7x7, partner max 1 µM) the “combination Emax” value [1] was 0.245, the “combination Emax” value [2] was 0.438 and the “combination Emax” value [3] was 0.391. For the same compound, the “combination Emax” value [4] was 1, the “combination Emax” value [5] was 0.286 and the “combination Emax” value [6] was 1. For the same compound, the “combination Emax” value [7] was 0.403, the “combination Emax” value (NB69 (Neuroblastoma)) was 0.878 and the “combination Emax” value [8] was 0.743. The “combination Emax” value [9] was 0.343, the “combination Emax” value (PWR-1E (Non-Cancerous)) was 0.939 and the “combination Emax” value [10] was 0.937. For the same compound, the “combination Emax” value (EW-24 (Ewing's Sarcoma)) was 0.383, the “combination Emax” value [11] was 0.964 and the “combination Emax” value (D-263MG (Glioblastoma)) was 0.994. The “combination Emax” value [12] was 0.346, the “combination Emax” value [13] was 0.404 and the “combination Emax” value (YH-13 (Glioblastoma)) was 0.579. For the same compound, the “combination Emax” value [14] was 0.66 and the “combination Emax” value [15] was 0.446.
In the case of `CN(C)CCCOc1ccc(-c2ccc3ncc4c(c3c2)n(C2CCOCC2)c(=O)n4C)cn1` [AZD0156] + C=CCn1c(=O)c2cnc(Nc3ccc(N4CCN(C)CC4)cc3)nc2n1-c1cccc(C(C)(C)O)n1 [AZD1775] (first compound max 1 µM, partner max 1 µM), the “combination Emax” value [1] is reported as 0.908, the “combination Emax” value [2] is reported as 0.233 and the “combination Emax” value [3] is reported as 0.552. The “combination Emax” value [4] was 0.499, the “combination Emax” value [5] was 0.333 and the “combination Emax” value [6] was 0.996. For the same compound, the “combination Emax” value [7] was 0.472, the “combination Emax” value (NB69 (Neuroblastoma)) was 0.877 and the “combination Emax” value [8] was 0.753. For the same compound, the “combination Emax” value [9] was 0.639, the “combination Emax” value (PWR-1E (Non-Cancerous)) was 0.678 and the “combination Emax” value [10] was 0.427. The “combination Emax” value (EW-24 (Ewing's Sarcoma)) was 0.279, the “combination Emax” value [11] was 0.147 and the “combination Emax” value (D-263MG (Glioblastoma)) was 0.38. For the same compound, the “combination Emax” value [12] was 0.43, the “combination Emax” value [13] was 0.389 and the “combination Emax” value (YH-13 (Glioblastoma)) was 0.352. The “combination Emax” value [14] was 0.595 and the “combination Emax” value [15] was 0.266.
`C=CCn1c(=O)c2cnc(Nc3ccc(N4CCN(C)CC4)cc3)nc2n1-c1cccc(C(C)(C)O)n1` [AZD1775] + C1CN(CCC1(C(=O)N[C@@H](CCO)C2=CC=C(C=C2)Cl)N)C3=NC=NC4=C3C=CN4 [Capivasertib] (first compound max 3 µM, partner max 3 µM) was tested, and the “combination Emax” value [1] was 0.894, the “combination Emax” value [2] was 0.619 and the “combination Emax” value [3] was 0.715. For the same compound, the “combination Emax” value [4] was 0.886, the “combination Emax” value [5] was 0.667 and the “combination Emax” value [6] was 1. The “combination Emax” value [7] was 0.663, the “combination Emax” value (NB69 (Neuroblastoma)) was 0.942 and the “combination Emax” value [8] was 0.754. For the same compound, the “combination Emax” value [9] was 0.815, the “combination Emax” value (PWR-1E (Non-Cancerous)) was 0.988 and the “combination Emax” value [10] was 0.717. For the same compound, the “combination Emax” value (EW-24 (Ewing's Sarcoma)) was 0.503, the “combination Emax” value [11] was 0.586 and the “combination Emax” value (D-263MG (Glioblastoma)) was 0.696. For the same compound, the “combination Emax” value [12] was 0.325, the “combination Emax” value [13] was 0.629 and the “combination Emax” value (YH-13 (Glioblastoma)) was 0.519. For the same compound, the “combination Emax” value [14] was 0.585 and the “combination Emax” value [15] was 0.428.
For `CN(CCO)CC[C@H](CSc1ccccc1)Nc1ccc(S(=O)(=O)NC(=O)c2ccc(N3CCC([C@@H](O)c4ccccc4-c4ccc(Cl)cc4)CC3)cc2)cc1S(=O)(=O)C(F)(F)F` [AZD4320] + CN(C)CCCOc1ccc(-c2ccc3ncc4c(c3c2)n(C2CCOCC2)c(=O)n4C)cn1 [AZD0156] (first compound max 1 µM, 7x7, partner max 1 µM), the “combination Emax” value [1] was 0.374, the “combination Emax” value [2] was 0.106 and the “combination Emax” value [3] was 0.151. The “combination Emax” value [4] was 0.274, the “combination Emax” value [5] was 0.214 and the “combination Emax” value [6] was 1. The “combination Emax” value [7] was 0.217, the “combination Emax” value (NB69 (Neuroblastoma)) was 0.757 and the “combination Emax” value [8] was 0.276. For the same compound, the “combination Emax” value [9] was 0.307, the “combination Emax” value (PWR-1E (Non-Cancerous)) was 0.162 and the “combination Emax” value [10] was 0.291. The “combination Emax” value (EW-24 (Ewing's Sarcoma)) was 0.876, the “combination Emax” value [11] was 0.14 and the “combination Emax” value (D-263MG (Glioblastoma)) was 0.0929. The “combination Emax” value [12] was 0.21, the “combination Emax” value [13] was 0.245 and the “combination Emax” value (YH-13 (Glioblastoma)) was 0.134. The “combination Emax” value [14] was 0.141 and the “combination Emax” value [15] was 0.194.
In the case of `Cc1c2c(nn1C)CSCc1cc(n(C)n1)CSc1cc(c3ccccc3c1)OCCCc1c(C(=O)O)n(C)c3c-2c(Cl)ccc13` [AZD5991] + CC1(C)CCC(CN2CCN(c3ccc(C(=O)NS(=O)(=O)c4ccc(NCC5CCOCC5)c([N+](=O)[O-])c4)c(Oc4cnc5[nH]ccc5c4)c3)CC2)=C(c2ccc(Cl)cc2)C1 [Venetoclax] (first compound max 1 µM, 7x7, partner max 1 µM), the “combination Emax” value [1] is reported as 0.248, the “combination Emax” value [2] is reported as 0.145 and the “combination Emax” value [3] is reported as 0.196. The “combination Emax” value [4] was 0.895, the “combination Emax” value [5] was 0.258 and the “combination Emax” value [6] was 1. For the same compound, the “combination Emax” value [7] was 0.217, the “combination Emax” value (NB69 (Neuroblastoma)) was 0.877 and the “combination Emax” value [8] was 0.616. The “combination Emax” value [9] was 0.393, the “combination Emax” value (PWR-1E (Non-Cancerous)) was 0.199 and the “combination Emax” value [10] was 0.457. For the same compound, the “combination Emax” value (EW-24 (Ewing's Sarcoma)) was 0.38, the “combination Emax” value [11] was 0.927 and the “combination Emax” value (D-263MG (Glioblastoma)) was 0.863. For the same compound, the “combination Emax” value [12] was 0.184, the “combination Emax” value [13] was 0.142 and the “combination Emax” value (YH-13 (Glioblastoma)) was 0.145. The “combination Emax” value [14] was 0.451 and the “combination Emax” value [15] was 0.0765.
